The values that follow come from patent US20140171417A1, “TRICYCLIC COMPOUNDS” (NOVARTIS AG, priority 2012, published 2014).

This assay deals with T1, CFTR (Homo sapiens, UniProt P13569).
T1 construct: expressed in transfected cells
Put plainly: IonWorks Quattro assay (CFTR Inhibitor Assay), whole-cell planar patch clamp. The following applies: inward current (−100 mV); CHO cells stably expressing WT-CFTR; CFTR activated by 10 μM forskolin; test compound incubated 10 min. Type of assay: cell-based. From the text:
CFTR activity can be quantified by electrophysiology methods, using the whole-cell configuration of the patch clamp technique (Hamill O, Marty A, Neher E, Sakmann B and Sigworth F. ‘Improved patch-clamp techniques for high resolution current recording from cells and cell-free membrane patches.’ Pflugers Archive 1981 391: 85-100). This assay directly measures the currents associated with chloride flow through CFTR channels whilst either maintaining or adjusting the transmembrane voltage. This assay can use either single glass micropipettes or parallel planar arrays to measure CFTR activity from native or recombinant cell systems. Currents measured using parallel planar arrays can be quantified using an appropriately equipped instrument such as the IonWorks Quattro (Molecular Devices Corporation, Sunnyvale, Calif.). The Quattro system can measure CFTR currents from either a single cell per recording well (HT configuration) or alternatively from a population of 64 cells per well (Population Patch Clamp PPC) (Finkel A, Wittel A, Yang N, Handran S, Hughes J, Costantin J. ‘Population patch clamp improves data consistency and success rates in the measurement of ionic currents.’ J Biomol Screen. 2006 August; 11 (5):488-96).
Chinese hamster ovary (CHO) cells stably expressing WT-CFTR channels were used for the IonWorks Quattro experiments. Cells were maintained at 37° C. in 5% v/v CO2 at 100% humidity in MEM alpha medium supplemented with 10% (v/v) FCS, 100 U/mL Penicillin/Streptomycin, and 100 μg/L methotrexate. For experiments, cells were grown in 225 cm^2 tissue culture flasks until almost confluent. Cells were removed from the flask using trypsin-EDTA and resuspended in extracellular recording solution for immediate experimentation.
Cells, at a density of 1.5-2 million per mL, were placed on the Quattro system, added to the planar patch plate and seals allowed to establish for 5-10 mins. After assessing seal resistances (typically >50 MΩ), whole-cell access was obtained by perforation with 100 μg/mL amphotericin B. Baseline currents were measured by a pre-compound scan obtained by application of a voltage ramp from −100 to +100 mV. CFTR was activated by the addition of 10 μM forskolin to each of the 384 wells of the patch plate. After 5 min incubation the post-compound 1 currents were measured, again by application of a voltage ramp from −100 to +100 mV. Test compounds, diluted from 10 mM stocks in DMSO in extracellular solution were then added to the patch plate and were incubated for a further 10 min. The post-compound 2 currents were measured by the application of the same voltage ramp from −100 to +100 mV. The inhibition of CFTR was determined from the difference in current between the forskolin addition (post-compound 1) and the test compound (post-compound 2). This was determined at both −100 mV and +100 mV which represents the inward and outward current respectively.
Extracellular solution (ECS): 145 mM NaCl, 4 mM CsCl, 5 mM D-glucose, 10 mM TES, 1 mM CaCl2, 1 mM MgCl2, pH 7.4 NaOH
Intracellular solution (ICS): 113 mM L-Aspartic acid, 113 mM CsOH, 27 mM CsCl, 1 mM NaCl, 1 mM MgCl2, 1 mM EGTA, 10 mM TES. pH 7.2 with CsOH. Filter sterilized before use.

SMILES strings stand for the structures.

T1 sequence (P13569 whole entry): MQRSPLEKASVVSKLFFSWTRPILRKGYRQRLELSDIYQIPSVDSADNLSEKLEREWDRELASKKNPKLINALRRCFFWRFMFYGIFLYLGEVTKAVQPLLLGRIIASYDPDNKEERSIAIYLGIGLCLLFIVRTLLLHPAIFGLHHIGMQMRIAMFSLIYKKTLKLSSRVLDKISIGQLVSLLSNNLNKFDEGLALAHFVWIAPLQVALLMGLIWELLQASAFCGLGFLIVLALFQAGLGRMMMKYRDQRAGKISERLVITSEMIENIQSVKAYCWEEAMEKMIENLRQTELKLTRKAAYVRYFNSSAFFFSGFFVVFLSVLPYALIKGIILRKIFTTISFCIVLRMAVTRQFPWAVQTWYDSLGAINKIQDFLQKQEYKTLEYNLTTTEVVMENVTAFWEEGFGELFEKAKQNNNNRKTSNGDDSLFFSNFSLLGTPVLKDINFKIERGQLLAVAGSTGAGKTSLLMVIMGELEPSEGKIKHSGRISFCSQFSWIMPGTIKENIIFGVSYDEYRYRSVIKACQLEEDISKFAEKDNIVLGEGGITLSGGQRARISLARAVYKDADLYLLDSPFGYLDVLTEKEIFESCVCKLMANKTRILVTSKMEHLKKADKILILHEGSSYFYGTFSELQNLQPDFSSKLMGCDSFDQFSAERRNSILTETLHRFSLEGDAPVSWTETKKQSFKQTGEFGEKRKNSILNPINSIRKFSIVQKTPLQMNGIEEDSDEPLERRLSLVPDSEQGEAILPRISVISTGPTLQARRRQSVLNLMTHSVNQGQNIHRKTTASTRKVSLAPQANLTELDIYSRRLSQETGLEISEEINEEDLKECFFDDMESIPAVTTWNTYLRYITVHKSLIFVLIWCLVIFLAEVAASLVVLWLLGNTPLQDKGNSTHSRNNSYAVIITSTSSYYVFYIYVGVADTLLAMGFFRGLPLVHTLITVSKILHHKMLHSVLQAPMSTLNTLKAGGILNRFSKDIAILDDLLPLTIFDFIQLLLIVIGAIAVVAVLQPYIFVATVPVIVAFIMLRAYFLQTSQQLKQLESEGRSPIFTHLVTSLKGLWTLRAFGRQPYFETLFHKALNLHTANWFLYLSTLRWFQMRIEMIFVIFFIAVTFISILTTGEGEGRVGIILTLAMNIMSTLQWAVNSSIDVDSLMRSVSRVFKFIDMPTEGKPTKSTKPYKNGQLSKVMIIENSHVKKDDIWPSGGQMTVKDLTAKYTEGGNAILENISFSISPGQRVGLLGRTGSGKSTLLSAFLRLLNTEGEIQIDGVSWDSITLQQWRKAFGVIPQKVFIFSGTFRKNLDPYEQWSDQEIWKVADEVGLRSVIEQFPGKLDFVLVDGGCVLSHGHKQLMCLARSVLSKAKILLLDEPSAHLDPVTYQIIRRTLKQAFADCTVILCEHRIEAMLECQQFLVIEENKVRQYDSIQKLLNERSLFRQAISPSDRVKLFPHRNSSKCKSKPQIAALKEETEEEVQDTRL

As for `Cn1c(=O)c2c(-c3ccccc3)n3c(c2n(C)c1=O)[C@H](c1ccc(Cl)o1)SCC3` [Example 1.1.1, (R)-10-(5-chlorofuran-2-yl)-1,3-dimethyl-5-phenyl-7,8-dihydro-1H-pyrimido[4′,5′:3,4]pyrrolo[2,1-c][1,4]thiazine-2,4(3H,10H)-dione], the IC50 – broadly, the concentration that gives 50% inhibition – came out at 0.63 µM.

In the case of `Cc1cccc(-c2c3c(=O)n(C)c(=O)n(C)c3c3n2CCCC3c2nc(C)cs2)c1` (single isomer, unassigned) [Example 8.2, 1,3-dimethyl-10-(4-methylthiazol-2-yl)-5-m-tolyl-7,8,9,10-tetrahydropyrimido[4,5-a]indolizine-2,4(1H,3H)-dione], the IC50 came to 0.29 µM.

As to `Cc1nc(-c2c3c(=O)n(C)c(=O)n(C)c3c3n2CCC[C@H]3c2nc(Cl)cs2)cs1` (single isomer, unassigned) [Example 13.3a, 10-(4-chlorothiazol-2-yl)-1,3-dimethyl-5-(2-methylthiazol-4-yl)-7,8,9,10-tetrahydropyrimido[4,5-a]indolizine-2,4(1H,3H)-dione], the midpoint of inhibition, the IC50, lay at 0.09 µM.

With `CN(C)C[C@@H]1Cn2c(-c3ccccc3)c3c(=O)n(C)c(=O)n(C)c3c2[C@@H](c2ccc(Cl)o2)S1` (single isomer, unassigned) [Example 14a, 10-(5-chlorofuran-2-yl)-8-((dimethylamino)methyl)-1,3-dimethyl-5-phenyl-7,8-dihydro-1H-pyrimido[4′,5′:3,4]pyrrolo[2,1-c][1,4]thiazine-2,4(3H,10H)-dione], half-maximal inhibition (IC50) was put at 0.31 µM.

`Cn1ccc(-c2c3c(=O)n(C)c(=O)n(C)c3c3n2CCSC3c2ccc(Cl)o2)n1` (single isomer, unassigned) [Example 15.11, 10-(5-Chlorofuran-2-yl)-1,3-dimethyl-5-(1-methyl-1H-pyrazol-3-yl)-7,8-dihydro-1H-pyrimido[4′,5′:3,4]pyrrolo[2,1-c][1,4]thiazine-2,4(3H,10H)-dione] yielded an IC50 of 0.13 µM.

Compound `Cn1c(=O)c2c(-c3cccc(C#N)c3)n3c(c2n(C)c1=O)C(c1nc(Cl)cs1)CCCC3` (single isomer, unassigned) [Example 31, 3-(11-(4-chlorothiazol-2-yl)-1,3-dimethyl-2,4-dioxo-2,3,4,7,8,9,10,11-octahydro-1H-pyrimido[4′,5′:3,4]pyrrolo[1,2-a]azepin-5-yl)benzonitrile] registered an IC50 of 1.45 µM.

For `Cc1ccc(C2c3c4c(c(-c5cccc(F)c5)n3CCC2(F)F)c(=O)n(C)c(=O)n4C)o1` (racemic) [Example 18, 9,9-Difluoro-5-(3-fluorophenyl)-1,3-dimethyl-10-(5-methylfuran-2-yl)-7,8,9,10-tetrahydropyrimido[4,5-a]indolizine-2,4(1H,3H)-dione], 0.48 µM corresponded to half-maximal inhibition (IC50).

Turning to `Cn1ccc(-c2c3c(=O)n(C)c(=O)n(C)c3c3n2CCCC3c2nc(Cl)cs2)n1` (racemic) [Example 22, 10-(4-Chlorothiazol-2-yl)-1,3-dimethyl-5-(1-methyl-1H-pyrazol-3-yl)-7,8,9,10-tetrahydropyrimido[4,5-a]indolizine-2,4(1H,3H)-dione], the IC50 stood at 0.47 µM.

Turning to `Cc1csc(-c2c3c(=O)n(C)c(=O)n(C)c3c3n2C[C@H](CN)S[C@H]3c2ccc(Cl)o2)n1` (single isomer, unassigned) [Example 19, 8-(aminomethyl)-10-(5-chlorofuran-2-yl)-1,3-dimethyl-5-(4-methylthiazol-2-yl)-7,8-dihydro-1H-pyrimido[4′,5′:3,4]pyrrolo[2,1-c][1,4]thiazine-2,4(3H,10H)-dione], the IC50 is 5.38 µM.

Consider `Cn1c(=O)c2c(-c3cccc(F)c3)n3c(c2n(C)c1=O)[C@H](c1nc(Cl)cs1)C[C@@H]3CO` [Example 27a, (7R,9R)-9-(4-chlorothiazol-2-yl)-5-(3-fluorophenyl)-7-(hydroxymethyl)-1,3-dimethyl-8,9-dihydro-1H-pyrimido[4,5-a]pyrrolizine-2,4(3H,7H)-dione], for which the half-inhibitory concentration (IC50) was determined as 0.15 µM.
